Marks after values point to notes of the source that are not given here.

The values below come from US20030065039A1, “Biologically active 1,3-bis-aromatic-prop-2-en-1-ones, 1,3-bis-aromatic-propan-1-ones, and 1,3-bis-aromatic-prop-2-yn-1-ones” (Statens Serum Institute, priority 1997, published 2003).

In series [1] the test system is Clostridium perfringes. The series is described as follows: Effect on anaerobic bacteria (growth). In kind it is cell-based. The note with it: at a concentration of 5 μg/ml.
The subject of series [2] is Bacteroides fragilis. The series is described as follows: Effect on anaerobic bacteria (growth). Particulars: at a concentration of 5 μg/ml. The class given is cell-based.
The test system of series [3] is Peptostreptococcus. The series is described as follows: Effect on anaerobic bacteria (growth). In kind it is cell-based. Particulars: at a concentration of 5 μg/ml.
Series [4] deals with FRD (L. major). The series is described as follows: Effect on fumarate reductase of L. major promastigotes. The note with it: incubation at 28° C. for 5 min. In kind it is biochemical, Leishmania major. The protocol: FIG. 5. Effect of licochalcone A on Leishmania major fumarate reductase. Digitonin treated promastigotes was incubated with licochalcone A at 28° C. 30 min, and the remaining enzyme activity was measured. Data are mean ±SEM from 6 different experiments.
FIG. 6. Effect of licochalcone A on Leishmania major fumarate reductase. KCL-solubilised fumarate reductase was incubated with licochalcone A at 28° C. 30 min, and the remaining enzyme activity was measured. Data are mean ±SEM from 6 different experiments.
Parasites were harvested by centrifugation at 1000 g for 10 min, and were washed 2 times in an isotonic phosphate saline buffer (50 mM sodium phosphate, pH 7.2, 90 mM NaCl, 5 mM KCl). […]
NADH-FRD activity was determined as the rate of NADH-oxidation upon addition of 1 mM fumarate in the KCl-solubilized fraction. The reaction was monitored spectrophotometrically at 340 nm ((=6.2 mM^−1 cm^−1) using 100 μM NADH and usually 0.1 mg protein in both reference and sample cuvettes. The measurement was carried out in a Shimadzu UV-190 double-beam spectrophotometer. Protein concentrations were determined using a Bio-Rad protein assay (Bio-Rad Laboratories, 200 Alfred Nobel Dr. Hercules, Calif. 94547, USA).
KCl solubilized fraction of Leishmania major promastigotes was incubated with different concentrations of various oxygenated chalcones at 28° C. and the remaining FRD activity was measured.

Series [5] concerns SDH (L. major). The series is described as follows: Effect on succinate dehydrogenase of L. major promastigotes. The class given is biochemical, Leishmania major. The text has this:
FIG. 10. Licochalocone A on SDH of L. major promastigotes (membrane rich fraction)

The target of series [6] is T1, SDH (human MNC) (Homo sapiens, UniProt P31040).
T1 construct: endogenous in cells; host or cells: human blood mononuclear cells (MNC), membrane rich fraction
The series is described as follows: Effect on human MNC succinate dehydrogenase. Particulars: incubation at 28° C. for 5 min. The class given is biochemical.

The target of series [7] is NDH (L. major). The series is described as follows: Effect on L. major NADH dehydrogenase. The class given is biochemical, Leishmania major. Particulars: incubation at 28° C. The source says: FIG. 11. Effect of licochalcone A on Leishmania major NADH dehhydrogenase. […] Data are mean ±SEM from 6 different experiments.
In series [8] the test system is NDH (J774). Description: Effect on J774 cells NADH dehydrogenase. The note with it: incubation at 28° C. for 5 min. The class given is biochemical. How it is done:
FIG. 17. Effect of licochalcone A on J774 cells NADH dehydrogenase. Membrane rich fraction of parasite was incubated with licochalcone A at 28° C. for 5 min, the remaining enzyme activity was measured. Data are mean ±SEM from 4 different experiments.

Series [9] deals with SCC (L. major). The series is described as follows: Effect on L. major succinate-cytochrome c reductase. In kind it is biochemical, Leishmania major. Particulars: incubation at 28° C. for 5 min. The protocol:
FIG. 12. Effect of licochalcone A on Leishmania major succinate-cytochrome c reductase. Membrane rich fraction of parasite was incubated with licochalcone A at 28° C. for 5 min, the remaining enzyme activity was measured. Data are mean ±SEM from 4 different experiments.

The target in series [10] is NCC (L. major). The series is described as follows: Effect on L. major NADH-cytochrome c reductase. The class given is biochemical, Leishmania major. Particulars: incubation at 28° C. for 5 min. How it is done: FIG. 13. Effect of licochalcone A on Leishmania major NADH-cycochrome c reductase. Membrane rich fraction of parasite was incubated with licochalcone A at 28° C. for 5 min, the remaining enzyme activity was measured. Data are mean ±SEM from 4 different experiments.

Series [11] can be described thus: Single dose toxicity in mice. In kind it is in vivo. The protocol: (§1) Also in rats, LDlow po>1000 mg/kg was found. Studies carried out later in the project using the dosing schedule, also used to measure effects against the malaria parasites, confirmed the very good oral tolerance to all compounds tested.
Series [12] is described as follows: Single dose toxicity in rats. The class given is in vivo. How it is done:
as §1

For series [13], the system named is Leishmania major. The series is described as follows: Respiration of Leishmania major (O2 consumption, CO2 production). The class given is cell-based.
The subject of series [14] is parasite mitochondrial dehydrogenase. Description: Parasite mitochondrial dehydrogenase activity. In kind it is biochemical, Leishmania major.

T1 sequence (P31040 43-664): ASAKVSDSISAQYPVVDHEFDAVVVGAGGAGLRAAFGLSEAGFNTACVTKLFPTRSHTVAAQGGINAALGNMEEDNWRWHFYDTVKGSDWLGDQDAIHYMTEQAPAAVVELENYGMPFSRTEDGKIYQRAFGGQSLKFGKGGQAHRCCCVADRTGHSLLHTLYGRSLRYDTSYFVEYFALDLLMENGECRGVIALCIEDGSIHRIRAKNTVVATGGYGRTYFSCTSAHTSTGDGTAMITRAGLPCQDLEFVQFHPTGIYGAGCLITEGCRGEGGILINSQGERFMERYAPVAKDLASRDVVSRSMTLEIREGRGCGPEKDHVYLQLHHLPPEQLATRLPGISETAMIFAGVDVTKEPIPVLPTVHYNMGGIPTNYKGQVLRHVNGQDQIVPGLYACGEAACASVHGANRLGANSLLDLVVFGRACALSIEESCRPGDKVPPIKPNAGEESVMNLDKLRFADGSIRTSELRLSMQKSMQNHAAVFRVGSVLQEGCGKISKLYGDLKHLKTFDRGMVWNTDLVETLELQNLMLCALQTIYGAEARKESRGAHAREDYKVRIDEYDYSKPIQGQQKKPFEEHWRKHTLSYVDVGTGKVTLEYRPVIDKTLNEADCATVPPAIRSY
T1 sequence (P21912 29-280 partner): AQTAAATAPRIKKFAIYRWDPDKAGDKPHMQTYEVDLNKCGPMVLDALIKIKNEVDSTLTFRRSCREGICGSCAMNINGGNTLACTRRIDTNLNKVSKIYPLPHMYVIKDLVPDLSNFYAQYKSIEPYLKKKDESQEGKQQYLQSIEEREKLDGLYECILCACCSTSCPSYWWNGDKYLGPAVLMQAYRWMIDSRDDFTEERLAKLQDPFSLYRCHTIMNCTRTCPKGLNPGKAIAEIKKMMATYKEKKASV
T1 sequence (Q99643 30-169 partner): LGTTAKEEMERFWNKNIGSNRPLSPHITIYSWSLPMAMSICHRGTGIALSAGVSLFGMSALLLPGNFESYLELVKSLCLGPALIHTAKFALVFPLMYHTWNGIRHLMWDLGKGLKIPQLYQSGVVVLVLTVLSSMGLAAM
T1 sequence (O14521 57-159 partner): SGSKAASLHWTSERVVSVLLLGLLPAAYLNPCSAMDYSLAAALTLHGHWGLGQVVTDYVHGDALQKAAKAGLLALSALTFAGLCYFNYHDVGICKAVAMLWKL

Turning to `C=CC(C)(C)c1cc(/C=C/C(=O)c2ccc(O)cc2)c(OC)cc1O` [Licochalcone A], the “growth of Clostridium perfringes” value in [1] is recorded as “completely inhibted”. The “growth of Bacteroides fragilis” value in series [2] is reported as “completely inhibted”. In addition, in [3], the “growth of Peptostreptococcus” value is recorded as “completely inhibted”. Further, the IC50 in [4] is 54.7 μg/mg protein; in series [5] (incubation at 28° C. for 5 min), >250* μg/mg protein; in series [6] it was 799.7 μg/mg protein; in series [7], 415.1 μg/mg protein; in series [8] it was 547.7 μg/mg protein; in series [9], 647.6 μg/mg protein. The compound also showed an IC50 in series [10] of 387.5 μg/mg protein. For the same compound, the inhibition result in [5] (at 250 μg/mg protein) was “*29% inhibition at 250 μg/mg protein”. Moreover, the LDlow po in series [11] and in series [12] was > 1000 mg/kg in each case. Besides, the “respiration of the parasite (O2 consumption, CO2 production)” value in [13] was “inhibited the respiration of the parasite in a concentration-dependent manner”. Further, the “activity of the parasite mitochondrial dehydrogenase” value in series [14] is “inhibited the activity of the parasite mitochondrial dehydrogenase”.

The term melting point denotes the temperature, or range, at which the solid turns liquid. For the compound `COc1cc(/C=C/C(=O)c2ccc(C3CCCCC3)cc2)cc(OC)c1` [PH104, 3,5-dimethoxy-4′-cyclohexylchalcone], the melting point lay in the range of 75.5 to 76.2 °C.
